Measured values from patent publication US20090081197A1 (Palatin Technologies, Inc., priority 2007, published 2009).
Non-standard residues stand in square brackets, D forms with d. Residues, ends and D or L forms follow the SMILES beside them. *: point of attachment. dPhe(4-Cl) = N[C@H](Cc1ccc(Cl)cc1)C(=O)O; Ahp = NCCCCCCC(=O)O; Bn = c1ccc(C*)cc1

Experiments:
[1] = biological target: T1, MC1-R (Mus musculus, UniProt Q01727); assay: Competitive inhibition assay using [I^125]-NDP-α-MSH, B-16 mouse melanoma cell membranes; format: binding; details: for inhibition at 1 µM: 1 μM test compound, read-out: Inhibition at 1 μM (NDP-α-MSH) In Normal System, MC1-R; for Ki: read-out: Ki (nM) (NDP-α-MSH) In Normal System, MC1-R
T1 construct: B-16 mouse melanoma cells (containing MC1-R); endogenous in cells
T1 sequence (Q01727 whole entry): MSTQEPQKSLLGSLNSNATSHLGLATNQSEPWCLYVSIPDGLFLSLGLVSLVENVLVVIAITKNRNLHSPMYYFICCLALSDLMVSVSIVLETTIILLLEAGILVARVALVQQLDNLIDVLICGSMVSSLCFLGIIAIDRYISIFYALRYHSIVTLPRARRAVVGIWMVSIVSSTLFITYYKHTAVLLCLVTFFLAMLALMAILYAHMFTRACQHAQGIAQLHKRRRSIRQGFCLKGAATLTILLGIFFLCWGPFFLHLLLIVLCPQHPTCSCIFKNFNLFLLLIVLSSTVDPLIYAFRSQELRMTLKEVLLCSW
Summary of the method: (§1)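 Tracer was 0.4 nM for MC3-R and MC5-R, 0.2 nM for MC4-R and 0.1 nM for MC1-R. Bound radioactivity was gamma-counted after filtration; values are triplicate means, with results below 0% reported as 0%.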

[2] = Penile erection induction in male rats; format: in vivo; details: rat
Summary of the method: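 Male Sprague-Dawley rats (200-250 g), groups of 4-8, dosed IV or ICV at various doses and observed individually for penile erections. Only statistically relevant increases over vehicle-control mean PEs count as induction; IV responses below 1.0 PEs/rat treated as equivocal, some retested ICV.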

[3] = ICV food intake and body weight change; format: in vivo; details: rat, 1 nmol, 24 hours
Procedure: ICV food intake and body weight change. Change in food intake and body weight was evaluated for selected compounds. Rats with indwelling intracerebroventricular cannulas (ICV rats) were obtained from Hilltop Lab Animals, Inc. (Scottdale, Pa.). Animals were individually housed in conventional plexiglass hanging cages and maintained on a controlled 12 hour on/off light cycle. Water and powdered (LabDiet, 5P00 Prolab RMH 3000) or pelleted (Harlan Teklad 2018 18% Protein Rodent Diet) food was provided ad libitum. For 1 week before treatment, 24-hour food intake and body weight change was recorded to assess a baseline for the group during vehicle treatment. The rats were dosed ICV with vehicle or selected compounds (1-3 nmol). The changes in body weight and food intake for the 24 hour period after dosing were determined. The changes in body weight and food intake for the 48 hour and 72 hour periods after dosing were also measured to determine reversal of changes in body weight and food intake effects back to baseline levels.

[4] = IP (and IN) food intake, mice; format: in vivo; details: mouse, 4 hours
Procedure: IV and IP food intake and body weight change. Change in food intake and body weight was evaluated for selected compounds. Male Sprague-Dawley rats or male C57BL/6 mice were utilized. Animals were individually housed in conventional plexiglass hanging cages and maintained on a controlled 12 hour on/off light cycle. Water and powdered (LabDiet, 5P00 Prolab RMH 3000) or pelleted (Harlan Teklad 2018 18% Protein Rodent Diet) food was provided ad libitum. For 1 week before treatment, 24-hour food intake and body weight change was recorded to assess a baseline for the group during vehicle treatment. The rats were dosed IV with vehicle or selected compounds (0.5-3 mg/kg, and in some cases up to 10 mg/Kg) or dosed intraperitoneally (IP) with vehicle or selected compounds (0.5-10 mg/kg, and in some cases up to 50 mg/kg). Mice were dosed IP. […] The changes in body weight and food intake for the 48 hour and 72 hour periods after dosing were also measured to determined reversal of changes in body weight and food intake effects back to baseline levels.

[5] = biological target: MC3-R (Homo sapiens, UniProt P41968); assay: Competitive inhibition assay using [I^125]-NDP-α-MSH, hMC3-R membranes; format: binding; design: expressed in transfected cells; details: for inhibition at 1 µM: 1 μM test compound, read-out: Inhibition at 1 μM (NDP-α-MSH) In Normal System, MC3-R; for Ki: read-out: Ki (nM) (NDP-α-MSH) In Normal System, MC3-R
Sequence of MC3-R (P41968 whole entry): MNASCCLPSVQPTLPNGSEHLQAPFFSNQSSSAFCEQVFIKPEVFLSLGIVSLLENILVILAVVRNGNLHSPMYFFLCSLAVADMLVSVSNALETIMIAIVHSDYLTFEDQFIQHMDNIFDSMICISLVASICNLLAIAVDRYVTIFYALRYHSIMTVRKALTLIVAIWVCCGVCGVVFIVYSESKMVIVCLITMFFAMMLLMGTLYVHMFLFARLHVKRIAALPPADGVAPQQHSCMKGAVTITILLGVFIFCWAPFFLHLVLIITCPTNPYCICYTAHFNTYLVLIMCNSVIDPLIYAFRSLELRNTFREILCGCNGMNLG
Summary of the method: as §1

[6] = biological target: MC5-R (Homo sapiens, UniProt P33032); assay: Competitive inhibition assay using [I^125]-NDP-α-MSH, hMC5-R membranes; format: binding; design: expressed in transfected cells; details: for inhibition at 1 µM: 1 μM test compound, read-out: Inhibition at 1 μM (NDP-α-MSH) In Normal System, MC5-R; for Ki: read-out: Ki (nM) (NDP-α-MSH) In Normal System, MC5-R
Sequence of MC5-R (P33032 whole entry): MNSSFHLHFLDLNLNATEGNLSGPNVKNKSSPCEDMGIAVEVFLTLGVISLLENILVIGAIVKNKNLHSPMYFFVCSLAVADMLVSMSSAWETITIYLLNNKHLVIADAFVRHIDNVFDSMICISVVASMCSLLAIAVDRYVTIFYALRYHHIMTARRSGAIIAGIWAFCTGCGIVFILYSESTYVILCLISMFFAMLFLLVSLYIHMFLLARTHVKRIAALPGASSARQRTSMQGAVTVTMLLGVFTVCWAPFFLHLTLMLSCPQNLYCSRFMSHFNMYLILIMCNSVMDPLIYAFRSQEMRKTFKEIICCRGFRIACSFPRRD
Summary of the method: as §1

[7] = biological target: T2, MC4-R (Homo sapiens, UniProt P32245); assay: cAMP functional activity assay in HEK-293 cells, normal system; format: cell-based; design: expressed in transfected cells; host or cells: HEK-293; details: for intrinsic activity at MC4-R in a normal system / EC50: normal receptor density system; for intrinsic activity at MC4-R in a normal system: NDP-α-MSH = 1.0; for functional status at MC4-R in cAMP assay: normal system, 1 μM concentration where stated
T2 sequence (P32245 whole entry): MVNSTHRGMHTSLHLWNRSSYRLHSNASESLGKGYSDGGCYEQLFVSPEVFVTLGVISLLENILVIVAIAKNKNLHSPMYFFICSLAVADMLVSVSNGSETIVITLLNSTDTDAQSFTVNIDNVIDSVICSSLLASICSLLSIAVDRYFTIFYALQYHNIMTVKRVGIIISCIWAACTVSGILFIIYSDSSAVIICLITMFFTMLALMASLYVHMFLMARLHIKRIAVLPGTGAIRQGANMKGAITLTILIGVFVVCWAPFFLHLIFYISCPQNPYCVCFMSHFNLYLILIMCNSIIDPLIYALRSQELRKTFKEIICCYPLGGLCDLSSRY

[8] = biological target: T2, MC4-R; assay: Competitive inhibition assay using [I^125]-NDP-α-MSH, hMC4-R membranes; format: binding; design: host or cells: TREx-293 (HEK-293 stably expressing Tet repressor); details: for inhibition at 1 µM: 1 μM test compound, read-out: Inhibition at 1 μM (NDP-α-MSH) In Normal System, MC4-R; for Ki: read-out: Ki (nM) (NDP-α-MSH) In Normal System, MC4-R
Summary of the method: as §1

[9] = biological target: T2, MC4-R; assay: cAMP agonist stimulation, low receptor density system (0.1 ng/mL doxycycline); details: 0.1 ng/mL doxycycline, low receptor density hMC4-R system; NDP-α-MSH maximal cAMP = 1.0
[10] = biological target: T2, MC4-R; assay: cAMP agonist stimulation, high receptor density system (10 ng/mL doxycycline); details: for Efficacy/Intrinsic Activity: 10 ng/mL doxycycline, high receptor density hMC4-R system, NDP-α-MSH maximal cAMP = 1.0
[11] = IV and IP food intake and body weight change, rats; format: in vivo; details: rat, IV, dose not stated; for decrease in body weight: 24 hours
Procedure: IV and IP food intake and body weight change. Change in food intake and body weight was evaluated for selected compounds. Male Sprague-Dawley rats or male C57BL/6 mice were utilized. Animals were individually housed in conventional plexiglass hanging cages and maintained on a controlled 12 hour on/off light cycle. Water and powdered (LabDiet, 5P00 Prolab RMH 3000) or pelleted (Harlan Teklad 2018 18% Protein Rodent Diet) food was provided ad libitum. For 1 week before treatment, 24-hour food intake and body weight change was recorded to assess a baseline for the group during vehicle treatment. The rats were dosed IV with vehicle or selected compounds (0.5-3 mg/kg, and in some cases up to 10 mg/Kg) or dosed intraperitoneally (IP) with vehicle or selected compounds (0.5-10 mg/kg, and in some cases up to 50 mg/kg). Mice were dosed IP. The changes in body weight and food intake for the 24 hour period after dosing were determined. The changes in body weight and food intake for the 48 hour and 72 hour periods after dosing were also measured to determined reversal of changes in body weight and food intake effects back to baseline levels.

| Ki [8] | Ki [1] | Ki [5] | Ki [6] | Compound | inhibition at 1 µM [1] | decrease in food intake [3] | inhibition at 1 µM [5] | inhibition at 1 µM [6] | intrinsic activity at MC4-R in a normal system [7] | functional status at MC4-R in cAMP assay [7] | inhibition at 1 µM [8] | Efficacy/Intrinsic Activity [9] | EC50 [10] | Efficacy/Intrinsic Activity [10] | Penile Erection IV ([2]; IV) | penile erection response ([2]; IV) | decrease in body weight [3] | 24 hour decrease in food intake [11] | decrease in body weight [11] | penile erection response ([2]; IV, 0.0003 to 0.03 mg/kg) | also measured |
| --- | --- | --- | --- | --- | --- | --- | --- | --- | --- | --- | --- | --- | --- | --- | --- | --- | --- | --- | --- | --- | --- |
|  |  |  |  | N=C(N)NCCC[C@H](NC(=O)[C@@H](Cc1ccc(Cl)cc1)NC(=O)[C@H](COCc1ccccc1)NC(=O)CCCCCCN)C(=O)N[C@@H](Cc1c[nH]c2ccccc12)C(=O)N[C@@H](CC(=O)O)C(=O)N[C@@H](Cc1ccccc1)C(N)=O [Example 14, NH2—(CH2)6—C(═O)-Ser(Bzl)-D-Phe(4-Cl)-Arg-Trp-Asp-Phe-NH2] (H-[Ahp]S(Bn)[dPhe(4-Cl)]RWDF-NH2) | 38% | 50% | 66% | 52% | 0.5 | partial agonist (intrinsic activity between 0.1 (10%) and 0.7 (70%) is classified as a partial agonist) | 99% | None | 141 nM | 0.64 | No | no penile erection response | −2% | 30% | 2% |  |  |
|  |  |  |  | C[C@H](NC(=O)[C@H](Cc1c[nH]c2ccccc12)NC(=O)[C@H](CCCNC(=N)N)NC(=O)[C@@H](Cc1ccc(Cl)cc1)NC(=O)[C@H](COCc1ccccc1)NC(=O)CCCCCCN)C(N)=O [Example 15, NH2—(CH2)6—C(═O)-Ser(Bzl)-D-Phe(4-Cl)-Arg-Trp-Ala-NH2] (H-[Ahp]S(Bn)[dPhe(4-Cl)]RWA-NH2) | 60% | 14% | 93% | 79% | less than 0.1 | functionally inactive | 100% | None | 55 nM | 0.67 | No | no penile erection response | 2% | 4% |  |  |  |
| 11 nM | 1880 nM | 232 nM | 250 nM | CC(=O)N[C@H](Cc1ccc(C)cc1C)C(=O)N1C[C@@H](C)N(C(=O)Cc2ccc3ccccc3c2)C[C@@H]1CCCNC(=N)N [Example 30, N-{(R)-1-(2,4 dimethyl-benzyl)-2-[(2S,5R)-2-(3-guanidino-propyl)-5-methyl-4-(2-naphthalen-2-yl-acetyl)-piperazin-1-yl]-2-oxo-ethyl}-acetamide] |  |  |  |  | 0.4 | partial agonist (intrinsic activity between 0.1 (10%) and 0.7 (70%) is classified as a partial agonist) |  | None | 51 nM | 0.18 | No |  |  |  |  | no penile activity response | inhibition in vivo at 3 mg/kg ([4]; IP, 3 mg/kg, read-out: maximal decrease in food intake): 8%; EC50 [7]: 9 nM |
| 5 nM | 1390 nM | 136 nM | 234 nM | CC(=O)N[C@H](Cc1ccc(Cl)cc1C)C(=O)N1C[C@@H](C)N(C(=O)Cc2ccc3ccccc3c2)C[C@@H]1CCCNC(=N)N [Example 31, N-{(R)-1-(2-methyl, 4-chloro-benzyl)-2-[(2S,5R)-2-(3-guanidino-propyl)-5-methyl-4-(2-naphthalen-2-yl-acetyl)-piperazin-1-yl]-2-oxo-ethyl}-acetamide] |  |  |  |  | 0.6 | partial agonist (intrinsic activity between 0.1 (10%) and 0.7 (70%) is classified as a partial agonist) |  | None | 39 nM | 0.27 | No |  |  |  |  | no penile activity response | inhibition in vivo at 10 mg/kg ([4]; IP, 10 mg/kg, read-out: maximal decrease in food intake): 7%; EC50 [7]: 3 nM |

| Compound | Ki [8] | Ki [1] | Ki [5] | Ki [6] | inhibition at 1 µM [1] | decrease in food intake [3] | inhibition at 1 µM [5] | inhibition at 1 µM [6] | intrinsic activity at MC4-R in a normal system [7] | functional status at MC4-R in cAMP assay [7] | inhibition at 1 µM [8] | Efficacy/Intrinsic Activity [9] | EC50 [10] | Efficacy/Intrinsic Activity [10] | Penile Erection IV ([2]; IV) | penile erection response ([2]; IV) | decrease in body weight [3] | 24 hour decrease in food intake [11] | decrease in body weight [11] | penile erection response ([2]; IV, 0.0003 to 0.03 mg/kg) | also measured |
| --- | --- | --- | --- | --- | --- | --- | --- | --- | --- | --- | --- | --- | --- | --- | --- | --- | --- | --- | --- | --- | --- |
| N=C(N)NCCC[C@H](NC(=O)[C@@H](Cc1ccc(Cl)cc1)NC(=O)[C@H](COCc1ccccc1)NC(=O)CCCCCCN)C(=O)N[C@@H](Cc1c[nH]c2ccccc12)C(N)=O [Example 1, NH2—(CH2)6—C(═O)-Ser(Bzl)-(D)Phe(4-Cl)-Arg-Trp-NH2] (H-[Ahp]S(Bn)[dPhe(4-Cl)]RW-NH2) | 3 nM |  |  |  | 33% | 21% | 94% | 73% | 0.32 | partial agonist (intrinsic activity between 0.1 (10%) and 0.7 (70%) is classified as a partial agonist) | 99% | None | 21 nM | 0.97 |  |  |  |  |  |  | Penile Erection ICV ([2]; ICV): No; penile erection response ([2]; ICV, 0.01 to 5 nmol): no penile erection response; maximal decrease in food intake ([4]; IN, 10 μg/kg): 16%; maximal decrease in food intake ([4]; IP, 3 mg/kg): 26% |
| N=C(N)NCCC[C@H]1C(=O)N2C(CC[C@@H]2COc2ccc3ccccc3c2)N1C(=O)[C@@H](Cc1ccc(Cl)cc1Cl)NC(=O)[C@@H]1CC[C@H](c2ccccc2)N1 (stereo partly drawn) [Example 19, (2S,5R)-5-Phenyl-pyrrolidine-2-carboxylic acid {(R)-1-(2,4-dichloro-benzyl)-2-[(2S,5R)-2-(3-guanidino-propyl)-5-(naphthalen-2-yloxymethyl)-3-oxo-hexahydro-pyrrolo[1,2-a]imidazol-1-yl]-2-oxo-ethyl}-amide] |  | 1040 nM |  |  | 16% | 38% | 43% | 86% |  | no intrinsic activity (intrinsic activity below 0.1 (10%) is classified as inactive or having no intrinsic activity) | 97% | None | 173 nM | 0.22 | No |  | 3% | 1% | 2% |  | penile erection response ([2]; IV, 1 μg/kg): no penile erection response |
